The record followed here is ChEMBL document CHEMBL2021832, “On the search for potential anti-Trypanosoma cruzi drugs: synthesis and biological evaluation of 2-hydroxy-3-methylamino and 1,2,3-triazolic naphthoquinoidal compounds obtained by click chemistry reactions” (Eur J Med Chem, 2012).

In data set [1] the test system is Trypanosoma cruzi. The experiment in a line: Trypanocidal activity against bloodstream form of Trypanosoma cruzi Y isolated from albino mouse blood after 24 hrs by neubauer chamber analysis. Type of data set: functional, organism-based.
Data set [2] in a line: Selectivity index, ratio of LC50 for mouse embryo HMC to IC50 for bloodstream form of Trypanosoma cruzi Y.
A short description of data set [3]: Cytotoxicity against mouse embryo HMC after 24 hrs by Alamar blue assay. The following applies: mouse embryo HMC cells, read-out: LC50.
Data set [4] concerns Trypanosoma cruzi. Nature of the data set: Ratio of benznidazole IC50 to compound IC50 for bloodstream form of Trypanosoma cruzi Y. It is filed as functional.
The subject of another data set is Biomphalaria glabrata. The experiment in a line: Molluscicidal activity against Biomphalaria glabrata. Type of data set: functional, organism-based.

The source made the active and inactive calls. The calls are words filed in the database; no cut-off is given here. A value given as a limit tells only on which side of the number the result lay.

The IC50 is the concentration that gives 50% inhibition. Read a low IC50 as greater potency. In the data set with Trypanosoma cruzi [1], `O=C1C=C(n2cc(-c3ccc([N+](=O)[O-])cc3)nn2)C(=O)c2ccccc21` showed an IC50 of 2010 µM.
On to `CC(C)=CCC1=C(OS(C)(=O)=O)C(=O)c2ccccc2C1=O`, for which the Ratio LC50/IC50 in data set [2] turned out to be 0.6. Besides, the CC50 at 24 h in data set [3] was 16.7 µM. For the same compound, the IC50 in the data set with Trypanosoma cruzi [1] stood at 25.7 µM.
On to `O=C1C=C(n2cc(-c3ccccc3)nn2)C(=O)c2ccccc21`, for which, in data set [2], the Ratio LC50/IC50 stood at 18.9. For the same compound, in data set [3], the CC50 at 24 h was 206 µM. In the data set with Trypanosoma cruzi [1], this compound registered an IC50 of 10.9 µM. The “Ratio IC50” value in the data set on Trypanosoma cruzi [4] stood at 9.5.
In turn, `COc1ccc(-c2cn(C3=CC(=O)c4ccccc4C3=O)nn2)cc1` came in with an IC50 in the data set on Trypanosoma cruzi [1] of 45.8 µM.
Regarding `O=C1C=C(n2cc(CO)nn2)C(=O)c2ccccc21`, the Ratio LC50/IC50 in data set [2] worked out at 6.1. Besides, in data set [3], the CC50 at 24 h was 107 µM. This compound gave an IC50 in the data set on Trypanosoma cruzi [1] of 17.7 µM. Moreover, the “Ratio IC50” value in the data set with Trypanosoma cruzi [4] stood at 5.8.
With `CC1(C)OC2=C(C(=O)C(=O)c3ccccc32)C1n1cc(-c2ccc(Br)cc2)nn1` (stereo not given), in the data set on Trypanosoma cruzi [1], the midpoint of inhibition, the IC50, lay at 102 µM.
On to `CCOC(=O)c1cn(C2=CC(=O)c3ccccc3C2=O)nn1`, for which, in the data set on Trypanosoma cruzi [1], the midpoint of inhibition, the IC50, lay at 67.6 µM.
For the compound `O=C1C(O)=C(CN2CC3CCC2CC3)C(=O)c2ccccc21`, the outcome in the data set on Biomphalaria glabrata was Active. For the same compound, the IC50 with Trypanosoma cruzi [1] stood at 397 µM.
In the data set on Trypanosoma cruzi [1], `CC(C)=CCC1=C(OS(=O)(=O)c2ccc(C)cc2)C(=O)c2ccccc2C1=O` returned an IC50 of 158 µM.
As for `CC(C)(CO)NCC1=C(O)C(=O)c2ccccc2C1=O`, the result with Biomphalaria glabrata was Active. This compound also gave an IC50 in the data set on Trypanosoma cruzi [1] of 370 µM.
Consider `O=C1C(O)=C(CN2CCCC2)C(=O)c2ccccc21`, for which the outcome in the data set on Biomphalaria glabrata was Active. The compound also came in with a concentration for half-maximal inhibition (IC50) with Trypanosoma cruzi [1] of 396 µM.
For `O=C1C(O)=C(CNC2CCCC2)C(=O)c2ccccc21`, in the data set with Biomphalaria glabrata, the result was Active. The compound further showed an IC50 with Trypanosoma cruzi [1] of 361 µM.
In the data set with Trypanosoma cruzi [1], `CC1(C)OC2=C(C(=O)C(=O)c3ccccc32)C1n1cc(-c2ccc([N+](=O)[O-])cc2)nn1` (stereo not given) showed an IC50 of 21.8 µM. Also, the “Ratio IC50” value in the data set on Trypanosoma cruzi [4] was 2.5.
For the compound `CC1(C)CC2=C(O1)c1ccccc1C(=O)C2=O` [NOR-BETA-LAPACHONE], in the data set with Trypanosoma cruzi [1], the half-maximal inhibitory concentration (IC50) was above 4800 µM.
Take `Cc1ccc(-c2cn(C3C4=C(OC3(C)C)c3ccccc3C(=O)C4=O)nn2)cc1` (stereo not given): in the data set with Trypanosoma cruzi [1], the IC50 amounted to 39.6 µM. Further, the “Ratio IC50” value in the data set on Trypanosoma cruzi [4] is 2.5.
In the data set on Trypanosoma cruzi [1], `O=C1C(Cl)=C(n2cc(-c3ccccc3)nn2)C(=O)c2ccccc21` came in with an IC50 of 42 µM.
With `O=C1C=C(Cl)C(=O)c2ccccc21`, in data set [2], the Ratio LC50/IC50 stood at 3.6. In addition, the CC50 at 24 h in data set [3] stood at 41.3 µM. The same compound returned an IC50 in the data set with Trypanosoma cruzi [1] of 12.3 µM.
Take `CC1(C)OC2=C(C(=O)C(=O)c3ccccc32)C1n1cc(-c2ccc(F)cc2)nn1` (stereo not given): the IC50 with Trypanosoma cruzi [1] was determined as 20.8 µM. Further, the “Ratio IC50” value with Trypanosoma cruzi [4] was 2.5.
As to `O=C1C=C(n2cc(-c3ccc(Br)cc3)nn2)C(=O)c2ccccc21`, 492 µM corresponded to half-maximal inhibition in the data set on Trypanosoma cruzi [1] (IC50).
For the compound `[N-]=[N+]=NC1=CC(=O)c2ccccc2C1=O`, 41.6 µM corresponded to half-maximal inhibition in the data set on Trypanosoma cruzi [1] (IC50).
With `CCCN(CCC)CC1=C(O)C(=O)c2ccccc2C1=O`, in the data set with Biomphalaria glabrata, the result was Active. The compound further displayed an IC50 in the data set on Trypanosoma cruzi [1] of 206 µM.
`COc1ccc(-c2cn(C3C4=C(OC3(C)C)c3ccccc3C(=O)C4=O)nn2)cc1` (stereo not given) yielded an IC50 in the data set on Trypanosoma cruzi [1] of 359 µM.
In the data set with Trypanosoma cruzi [1], `[N-]=[N+]=NC1=C(Cl)C(=O)c2ccccc2C1=O` displayed an IC50 of 51.8 µM. In addition, in the data set with Trypanosoma cruzi [4], the “Ratio IC50” value came to 2.
`Cc1ccc(-c2cn(C3=CC(=O)c4ccccc4C3=O)nn2)cc1`: in the data set on Trypanosoma cruzi [1], the IC50 was 113 µM.
The same measure, in the same setting: in the case of `O=C1C=C(O)C(=O)c2ccccc21` [LAWSONE] it was above 2500 µM.
For `CC(C)(O)c1cn(C2=CC(=O)c3ccccc3C2=O)nn1`, in the data set with Trypanosoma cruzi [1], the IC50 came to 80.2 µM.
